Reference: patent publication US20230348419A1, “BIAMINOQUINOLINES AND NANOFORMULATIONS FOR CANCER TREATMENT” (The Regents of the University of California, priority 2019, published 2023)
Where two headings read alike, the source gives them in different places.

Key:
MIA PaCa-2 tumours = assay: MIA PaCa-2 xenograft model; format: in vivo, NRG mice; conditions: 20 mg kg^−1 every three days
Protocol: (§1) In vivo treatment schedule.
Antitumour effect as single agents in mice. After proving the safety of BAQ ONNs, the NPs for anticancer efficacy was evaluated in a pancreatic xenograft model of MIA PaCa-2 cells. NRG mice with MIA PaCa-2 tumours (˜100 mm^3) were randomly assigned into five groups (n=6): the saline (iv) group, the Lys05 (ip) group, the liposomes@Lys05 (iv) group, the BAQ12 NPs (iv) group and the BAQ13 NPs (iv) group. The mice were then treated every three days at a dose of 20 mg kg^−1. […] These findings clearly illustrate the potential advantages of BAQ ONNs with regard to both drug discovery and drug delivery.

HT29 tumours [1] = assay: HT29 xenograft model; conditions: mice bearing HT29 tumours, treatment terminated on the 24th day
Protocol: Animal model. To establish the subcutaneous xenograft models, 5×10^6 of MIA PaCa-2 cells, 2×10^6 of HT29 cells or 2×10^4 PCSCs suspended with Matrigel (Corning) and PBS mixture (1:1, volume ratio) were injected subcutaneously into the right flank of nude mice or NRG mice, respectively.
In vivo treatment schedule. The NRG mice bearing MIA PaCa-2 xenograft tumours (˜100 mm^3) were randomized into 5 groups (n=6), and then were subjected to iv injection every three days as indicated. […] The treatment on HT29 model was stopped on Day 24, and then the mice survival in each group was recorded, in which the mouse with a tumour larger than 1,000 mm^3 was considered dead. […] The tumour volume and body weight were recorded before drug administration every time. At the end of the treatment, mice were sacrificed and the tumours were collected for further analysis.

MIA PaCa-2 cells = assay: RNA sequencing, differentially expressed genes; format: cell-based, human; conditions: 5 μM, 24 h, vs vehicle
Protocol: RNA-seq. Total RNA was extracted by the RNeasy Mini Kit (Qiagen, Germany) from the treated MIA PaCa-2 cells (5 μM, 24 h). Samples were submitted to the UC Davis Comprehensive Cancer Center's Genomics Shared Resource (GSR) for RNA-Seq analysis. Stranded RNA-Seq libraries were prepared from 100 ng total RNA using the NEBNext Ultra Directional RNA Library Prep Kit (New England BioLabs). Subsequently, libraries were combined for multiplex sequencing on an Illumina HiSeq 4000 System (2×150 bp, paired-end, >20×10^6 reads per sample). The data of normalized genes read counts were analyzed using fold change and t test. The Differentially expressed genes (DEGs) were collected for the signaling pathways enrichment by Funrich software 3.1.3. The gene sets were from MSigDB database (Broad Institute). GSEA was performed using GSEA version 3.0 in KEGG gene sets category online, with the following parameters: n=1,000 permutations, where p-adjust <0.05, and FDR <0.05 were considered significant.

In vivo toxicity studies = assay: In vivo toxicity studies; set-up: species or system FVB/N mice; conditions: 10 mg kg^−1, iv
Protocol: In vivo toxicity studies. The toxicity of BAQ NPs was investigated on female FVB/N mice via iv injection. Mice were administrated with various concentrations (10 mg kg^−1, 20 mg kg^−1 or 40 mg kg^−1) of Lys05, Liposomes@Lys05, BAQ12 NPs, and BAQ13 NPs every two days. The status of mice was monitored every day and their body weight was recorded every two days. Blood samples were collected and sent to the UCD Comparative Pathology Laboratory for tests of complete blood count (CBC) and serum chemistry.

MCF-7 = assay: MTS cell viability assay; format: cell-based; conditions: 24 h; read-out: IC50 (μM) in the 24 h treatment MCF-7
Protocol: (§2) Cell line and cell culture. The human pancreatic cancer cell lines (MIA PaCa-2, BXPC3, and PANC-1) were originally purchased from ATCC and were kindly provided by Dr. Shiro Urayama's Lab. HT29, HCT116, H460, MCF7, NIH/3T3, and IMR-90 cell lines were purchased from ATCC. Bone marrow cells were collected from the leg bone marrows of FVB/N mice. All the cells were cultured at 37° C. in a humidified atmosphere of 5% CO2/95% air using the corresponding medium supplemented with 10% fetal bovine serum, […] according to ATCC protocol. All the cell lines have been tested for mycoplasma contamination routinely.
(§3) Cell viability, cell growth and colony formation. Cell viability was assessed by the MTS assay. Briefly, cells in 96-well plates (4,000 cell per well) were treated as indicated, followed by the incubation with MTS regents for 4 h. OD values (490 nm) were determined via a microplate reader. Results were shown as the average cell viability calculated from the formula of [(ODtreat−ODblank)/(ODcontrol−ODblank)×100%]. Drug combination data were analyzed by Combenefit 2.02. In cell growth assay, cells in 6-well plates (50,000 cell per well) were treated as indicated and were counted manually every 24 h. Colony formation assay was also performed on 6-well plates with a starting density of 1,000-2,000 cells per well. After incubated as indicated for 10-20 days, cells were washed with PBS and stained with the solution of crystal violet and methanol for 20 min.

NIH/3T3 = assay: MTS cell viability assay; format: cell-based; conditions: 48 h, non-cancerous cells; read-out: IC50 values from the 48 h MTS assay (μM) NIH/3T3
Protocol: as §2, §3

H460 = assay: MTS cell viability assay; format: cell-based; conditions: 24 h; read-out: IC50 (μM) in the 24 h treatment H460
Protocol: as §2, §3

IMR-90 = assay: MTS cell viability assay; format: cell-based; conditions: 48 h, non-cancerous cells; read-out: IC50 values from the 48 h MTS assay (μM) IMR-90
Protocol: as §2, §3

HCT116 = assay: MTS cell viability assay; format: cell-based; conditions: 48 h; read-out: IC50 values from the 48 h MTS assay (μM) HCT116
Protocol: as §2, §3

HT29 = assay: MTS cell viability assay; format: cell-based; conditions: 24 h; read-out: IC50 (μM) in the 24 h treatment HT29
Protocol: as §2, §3

PANC-1 = assay: MTS cell viability assay; format: cell-based, human
Protocol: as §2, §3

BXPC-3 = assay: MTS cell viability assay; format: cell-based, human
Protocol: as §2, §3

MIA PaCa-2 = assay: MTS cell viability assay; format: cell-based, human; conditions: 24 h; read-out: IC50 (μM) in the 24 h treatment MIA PaCa-2
Protocol: as §2, §3

Bone marrow cells = assay: MTS cell viability assay; format: cell-based, FVB/N mice; conditions: 48 h, non-cancerous cells; read-out: IC50 values from the 48 h MTS assay (μM) Bone marrow
Protocol: as §2
as §3, with “After incubated as indicated for 10-20 days, cells were washed with PBS and stained with the solution of crystal violet and methanol for 20 min.” left out

[2] = Titration with hydrochloric acid (pH buffering capacity); format: physicochemical; conditions: 1 mM, 0.1 M HCl
Red blood cells = assay: pH-dependent haemolysis test; format: cell-based; conditions: whole pH range, same concentration (50 μM, 4 h)
HT29 tumours [3] = assay: In/ex vivo biodistribution, HT29 model; set-up: species or system nude mice; conditions: in vivo and ex vivo imaging, 12 h and 24 h post-injection
Protocol: In/ex vivo biodistribution. Nude mice bearing the HT29 tumours were subjected to iv administration of BAQ13 NPs@DiD (10:1, mass ratio) at a dose of 1.0 mg kg^−1 DiD. In vivo imaging studies were performed at the corresponding time point. Organs (brain, heart, lung, liver, spleen, kidney, intestines, and muscle) and tumours were collected from mice for ex vivo imaging. Biodistribution of BAQ13 NPs@ NAPA+DiD (10/2.5/1.0 mg kg^−1, iv) was studied on NRG mice bearing PCSC tumours. Both in vivo and ex vivo imaging studies were performed as above.

[4] = In vivo pharmacokinetic study; set-up: species or system Sprague-Dawley rats; conditions: rats, iv, DiD 0.5 mg kg^−1, plasma DiD fluorescence
Protocol: In vivo pharmacokinetic study. The jugular vein of female Sprague-Dawley rats (200-250 g) was implanted with a catheter for drug injection and blood collection (Harland, Indianapolis, IN, USA). Rats (n=3) were injected with free DiD, BAQ12 NPs@DiD (10:1, mass ratio) and BAQ13 NPs@DiD (10:1, mass ratio), respectively, which contained an equivalent dose of DiD (0.5 mg kg^−1). Blood samples were collected at the indicated time points and then were centrifuged to obtain the plasma. The plasma was diluted with DMSO (1:100), and the fluorescence intensity (λEx=595 nm, λEm=665 nm) was measured by a microplate reader (SpectraMax M2).

[5] = Drug loading using BAQ13 NPs; format: physicochemical; conditions: for PDI / Size/diameter: BAQ13 NPs loaded with the drug or dye; for Encapsulation efficiency / Drug-loading content: drug or dye loaded in BAQ13 NPs; for Drug-loading content: mass ratio
Protocol: Preparation and characterization of BAQ ONNs. NPs were prepared through the re-precipitation method. BAQ derivatives in methanol were added dropwise into MilliQ water while stirring for 5 min (volume ratio, 1:10), and then homogenous NPs were obtained after rotary evaporation (40° C., 20 min), followed by the characterization with Zetasizer Nano ZS (Malvern). The TEM samples were prepared by dropping 0.5 mM NPs on carbon square mesh and dried naturally, which were then observed under the Talos L120C TEM (FEI) at an accelerating voltage of 80 kV. To determine the drug content in nanoformulations, the prepared drug-loaded NPs were cut off by centrifugal filter (ultracel-10 kDa, Millipore), and the absorbance of filtrate (diluted with DMSO, 1:10, volume ratio) was measured for calculation of drug concentrations.
Next investigation was whether liposome-like BAQ ONNs can encapsulate additional agents. Upon nanoprecipitation of BAQ13 and various agents, homogeneous NPs with monomodal size distributions spontaneously formed (Table 2 and FIG. 9G).

PCSC tumours = assay: PCSC xenograft model; format: in vivo, NRG mice; conditions: combination therapy study, every three days
Text: as §1

OSC-3 cells = assay: PBC NPs in OSC-3 cells (lysosomes, apoptosis, photodynamic therapy); format: cell-based; conditions: LC3-GFP-RFP imaging and immunoblotting
[6] = system: autophagy (LC3B-II, SQSTM1/p62) in MIA PaCa-2 cells; assay: Autophagy inhibition (immunoblot, LC3B-GFP imaging, TEM); format: cell-based, human; conditions: western blotting, compared to untreated and Lys05-treated cells
Protocol: LC3B-GFP imaging. Cells in a 96-well plate (5,000 cell per well) were transfected by the autophagy sensor LC3B-GFP (Thermo Fisher) for 12 h. After treated as indicated for 4 h, cells were visualized by a fluorescence microscope (Olympus). The puncta per well were quantified using ImageJ 1.51s.
Western Blot. The cell or tumour samples were lysed with RIPA Buffer (Thermo Fisher). After centrifugation at 4° C. (15 min, 12,000×g), the concentrations of proteins in supernatant and determined by Bradford Protein Assay dye (Bio-Rad). Immunoblotting was performed routinely and were developed using a ChemiDoc™ MP imaging system.
TEM of cells and tumour tissue. MIA PaCa-2 cells in 8-well slide plates (30,000 cell per well, Lab-Tek) were treated as indicated for 48 h. The freshly harvested tumours were cut into 1 mm^3 pieces. Samples were fixed with the 0.1 M cacodylate buffer containing 2.5% glutaraldehyde plus 2% paraformaldehyde, and transferred onto carbon square mesh, followed by observation under Talos L120C TEM.

## CN(CCNc1ccnc2cc(Cl)ccc12)CCNc1ccnc2cc(Cl)ccc12 [Lys05]
MIA PaCa-2 tumours
  tumour growth: did not display a therapeutic effect
HT29 tumours [1]
  Median Survival: 28 days
MIA PaCa-2 cells
  downregulated genes: 103
  upregulated genes: 62
MIA PaCa-2 cells; fold change≥2 and p value≤0.05
  differentially expressed genes (DEGs): 165
In vivo toxicity studies
  mortality after iv administration: acute death of mice
MCF-7
  IC50: 12.3 ± 0.7 µM
NIH/3T3
  IC50: 12.6 ± 0.9 µM
H460
  IC50: 11.1 ± 0.6 µM
IMR-90
  IC50: 15.5 ± 2.5 µM
HCT116
  IC50: 8 ± 0.7 µM
HT29
  IC50: 10.6 ± 3.4 µM
PANC-1; 24 h, read-out: IC50 (μM) in the 24 h treatment PANC-1
  IC50: 13.3 ± 2 µM
PANC-1; 48 h, read-out: IC50 values from the 48 h MTS assay (μM) PANC-1
  IC50: 10.8 ± 0.9 µM
BXPC-3; 24 h, read-out: IC50 (μM) in the 24 h treatment BXPC-3
  IC50: 7.8 ± 0.9 µM
BXPC-3; 48 h, read-out: IC50 values from the 48 h MTS assay (μM) BXPC-3
  IC50: 11.1 ± 1.7 µM
MIA PaCa-2
  IC50: 16.7 ± 4.7 µM
Bone marrow cells
  IC50: 14 ± 1.1 µM
[2]
  pH plateau upon titration with HCl: 7.2
Red blood cells
  haemolytic response to pH: did not elicit observable haemolysis

## CCCCCCCCCCCCCCCCCCN1C(=CC=CC=CC2=[N+](CCCCCCCCCCCCCCCCCC)c3ccccc3C2(C)C)C(C)(C)c2ccccc21.[O-][Cl+3]([O-])([O-])[O-] [Free DiD, 1,1′-dioctadecyl-3,3,3′,3′-tetramethylindodicarbocyanine perchlorate]
HT29 tumours [3]
  biodistribution of fluorescence signals: high signals in the lungs, rather than in the tumour sites
[4]
  T1/2: 48 min
[5]
  PDI: 0.1
  Size/diameter: 120 nm
  Encapsulation efficiency: 100%
  Drug-loading content: 50%

## CC(=O)c1cc2c(o1)C(=O)c1ccccc1C2=O [Napabucasin]
PCSC tumours
  tumour growth: no antitumour effect
[5]
  PDI: 0.101
  Size/diameter: 110 nm
  Encapsulation efficiency: 85%
  Drug-loading content: 20%

## pheophorbide a
OSC-3 cells
  induction of autophagy: induced autophagy

## CO/C1=C\C(C)=C\[C@@H](C)[C@@H](O)[C@@H](C)C/C(C)=C/C=C/[C@H](OC)[C@@H]([C@@H](C)[C@@H](O)[C@H](C)[C@@]2(O)C[C@@H](O)[C@H](C)[C@@H](C(C)C)O2)OC1=O [bafilomycin A1]
[6]
  LC3B-II and SQSTM1/p62 protein levels: Such increases were also observed
